Test results as given in US6344457B1, “Amino acid derivatives inhibiting extracellular matrix metalloproteinase and TNF alpha release” (Chiesi Farmaceutici S.p.A., priority 1997, dated 2002).
Like-named read-outs stand apart in the source and are kept apart here.

Test: Determination of bioavailability (blood levels, ex-vivo bioassay)
Format: in vivo
Conditions: mice
Procedure: The compounds of this invention were administered i.p. or p.o. between 1 and 50 mg/kg to mice: the blood levels then were determined by an ex-vivo bioassay according to Wang X. et al. (Cancer Res., 54, 4726-4728, 1994). The introduction of an OH group systematically increases the bioavailability of the products.

[1] = mouse, blood, po, 50 mg/kg, 50 mg/kg p.o., read-out: blood level, P.o. method, 10′
[2] = mouse, blood, po, 50 mg/kg, 50 mg/kg p.o., read-out: blood level, P.o. method, 20′
[3] = mouse, blood, po, 50 mg/kg, 50 mg/kg p.o., read-out: blood level, P.o. method, 40′
[4] = mouse, blood, ip, 50 mg/kg, 50 mg/kg i.p., read-out: blood level, I.p. method, 10′
[5] = mouse, blood, ip, 50 mg/kg, 50 mg/kg i.p., read-out: blood level, I.p. method, 20′
[6] = mouse, blood, ip, 50 mg/kg, 50 mg/kg i.p., read-out: blood level, I.p. method, 40′
[7] = mouse, blood, po, 50 mg/kg, 50 mg/kg p.o., read-out: blood level, P.o. method, 1 h
[8] = mouse, blood, po, 50 mg/kg, 50 mg/kg p.o., read-out: blood level, P.o. method, 24 h
[9] = mouse, blood, ip, 50 mg/kg, 50 mg/kg i.p., read-out: blood level, I.p. method, 1 h
[10] = mouse, blood, ip, 50 mg/kg, 50 mg/kg i.p., read-out: blood level, I.p. method, 24 h

| SMILES | concentration at 10 min [1] | concentration at 20 min [2] | concentration at 10 min [4] | concentration at 20 min [5] | concentration at 40 min [6] | concentration at 1 h [7] | blood level, I.p. method, 10′ (50 mg/kg i.p.) | blood level, I.p. method, 20′ (50 mg/kg i.p.) | blood level, P.o. method, 10′ (50 mg/kg p.o.) | blood level, P.o. method, 20′ (50 mg/kg p.o.) | also measured |
| --- | --- | --- | --- | --- | --- | --- | --- | --- | --- | --- | --- |
| CNC(=O)C(Cc1ccc(Cl)c(Cl)c1)NC(=O)[C@](O)(CC(C)C)[C@H](C)C(=O)NO (some centres unmarked) | 600 ng/mL | 300 ng/mL |  |  |  |  |  |  |  |  | concentration at 40 min [3]: 600 ng/mL |
| CNC(=O)[C@@H](NC(=O)[C@H](CC(C)C)[C@H](O)C(=O)NO)C(C)C | 2200 ng/mL | 4300 ng/mL | 20000 ng/mL | 9000 ng/mL | 47000 ng/mL | 500 ng/mL |  |  |  |  | concentration at 30 min (mouse, blood, po, 50 mg/kg, 50 mg/kg p.o., 30′, read-out: blood level, P.o. method, 30′): 300 ng/mL; concentration at 24 h [8]: 170 ng/mL |
| CNC(=O)[C@H](Cc1ccc(OC)cc1)NC(=O)C(O)(CC(C)C)[C@H](O)C(=O)NO (some centres unmarked) | 10000 ng/mL | 9000 ng/mL | 20000 ng/mL | 0 ng/mL | 4000 ng/mL | 9000 ng/mL |  |  |  |  | concentration at 24 h [8]: 9000 ng/mL |
| CNC(=O)[C@@H](NC(=O)C(O)(CC(C)C)[C@H](C)C(=O)NO)C(C)(C)C (some centres unmarked) |  |  | 56000 ng/mL | 22000 ng/mL |  |  |  |  |  |  | concentration at 1 h [9]: 3500 ng/mL |
| CNC(=O)[C@H](Cc1ccc(OC)cc1)NC(=O)[C@H](CC(C)C)[C@H](C)C(=O)NO [drawing 113] | < 100 ng/mL | < 100 ng/mL | 200 ng/mL | < 100 ng/mL | < 100 ng/mL |  |  |  |  |  | concentration at 40 min [3]: < 100 ng/mL |
| CNC(=O)[C@H](Cc1ccc(OC)cc1)NC(=O)[C@](O)(CC(C)C)[C@H](C)C(=O)NO [drawing 114] | 4200 ng/mL | 2100 ng/mL | 23000 ng/mL | 8700 ng/mL |  | 580 ng/mL |  |  |  |  | concentration at 1 h [9]: 770 ng/mL; concentration at 24 h [10]: < 500 ng/mL; concentration at 24 h [8]: < 500 ng/mL |
| CC(C)C[C@@](O)(C(=O)N[C@@H](Cc1ccc(Cl)cc1)C(=O)NCCN1CCOCC1)[C@H](C)C(=O)NO [drawing 115] |  |  |  |  | 18000 ng/mL |  | 30000 ng/mL | 27000 ng/mL | 2300 ng/mL | 1200 ng/mL | blood level, P.o. method, 24 h (50 mg/kg p.o.): 900 ng/mL |
| CC(C)C[C@@](O)(C(=O)N[C@@H](Cc1ccc(Cl)cc1)C(=O)NCCN1CCOCC1)[C@H](C)C(=O)NO [drawing 116] |  |  |  |  |  | 400 ng/mL | 87000 ng/mL | 13000 ng/mL | 5100 ng/mL | 3100 ng/mL | blood level, P.o. method, 24 h (50 mg/kg p.o.): <300 ng/mL; concentration at 1 h [9]: 1700 ng/mL; concentration at 24 h [10]: 300 ng/mL |
| CC(C)C[C@@](O)(C(=O)N[C@@H](Cc1ccc(Cl)c(Cl)c1)C(=O)NCCN1CCOCC1)[C@H](C)C(=O)NO [drawing 118] |  |  |  |  |  |  | 700 ng/mL | 500 ng/mL | 100 ng/mL | 100 ng/mL | blood level, I.p. method, 40′ (50 mg/kg i.p.): 100 ng/mL |
| CC(C)C[C@@](O)(C(=O)N[C@@H](Cc1ccc(Cl)c(Cl)c1)C(=O)NCCN1CCOCC1)[C@H](C)C(=O)NO [drawing 119] |  |  |  |  |  | 450 ng/mL | 6000 ng/mL | 5000 ng/mL | 1250 ng/mL | 800 ng/mL | blood level, I.p. method, 40′ (50 mg/kg i.p.): 1800 ng/mL |
| CC(C)C[C@@](O)(C(=O)N[C@@H](Cc1ccc(Cl)c(Cl)c1)C(=O)NCCOCCO)[C@H](C)C(=O)NO [drawing 120] | 100 ng/mL | 100 ng/mL | 4500 ng/mL | 7800 ng/mL | 4400 ng/mL |  |  |  |  |  |  |
